Experimental data reported in patent US10548994B1, “Control of chronic neuropathic pain and allodynia” (STC.UNM, priority 2013, dated 2020).
Entries after “also recorded” stand apart in the source; their conditions may differ.

Columns and labels:
[1] = test system: leukocytes; details: prior work; cited from earlier work
[2] = test system: RAW 264.7 macrophage cells; test: LPS-induced NO production in RAW 264.7 macrophage cells; type: cell-based, mouse; details: NorBIRT 500 ng/ml pre-treatment 1, 2, 4 h; LPS 500 ng/ml 24 h
Method: The ability of NorBIRT to inhibit LPS-induced NO production in RAW 264.7macrophage cells was tested. Cells were pre-treated with NorBIRT (500 ng/ml) for 1, 2, and 4 h then exposed to LPS (500 ng/ml) for 24 h.

[3] = test system: TNF-α; test: TNF-α protein (ELISA) in LPS stimulated RAW 264.7 cells; type: cell-based, mouse; details: NorBIRT 500 ng/ml 1 h, LPS 500 ng/ml 4 and 24 h
Method: In this experiment, cells were incubated with NorBIRT (500 ng/ml; 1 h) and after treatment with LPS (500 ng/ml; 4 and 24 h) the protein levels of TNF-α was evaluated by ELISA.

[4] = test system: IL-1β; test: IL-1β (ELISA) in supernatants and cell lysates of LPS-stimulated RAW 264.7 cells; type: cell-based, mouse; details: NorBIRT 500 ng/ml pretreatment, LPS 500 ng/ml
Method: Additionally, RAW 264.7 cells were pretreated with 500 ng/ml of NorBIRT and were stimulated with LPS (500 ng/ml). The levels of IL-1β were measured by ELISA, (A) supernatants and (B) celllysates. […] FIG. 22 illustrates that NorBIRT inhibits LPS-stimulated expression of IL-1β in RAW 264.7 cells.
(§1) Given the intriguing profile of NorBIRT's actions on reversing allodynia, we examined whether NorBIRT additionally altered proinflammatory cytokine levels. […] Intracellular IL-1b requires enzymatic cleavage to produce the mature released form. […] Thus NorBIRT is blocking the release of mature IL-1b. […] So, NorBIRT may additionally have anti-inflammatory properties.

[5] = test system: IL-10; test: IL-10 protein (ELISA) in LPS-stimulated RAW 264.7 cells; type: cell-based, mouse; details: co-incubation with NorBIRT and LPS 500 ng/ml
Method: Protein levels of Il-10 were evaluated using ELISA.
as §1

[6] = test system: CCL2; test: LPS-stimulated CCL2 production in RAW 264.7 cells; type: cell-based, mouse; details: NorBIRT 500 ng/ml 1 h; LPS 500 ng/ml 24 h; supernatants and cell lysates
Method: RAW 264.7 cells were also pretreated with NorBIRT (500 ng/ml) for 1 h before being incubated with LPS (500 ng/ml) for 24 h. The culture supernatant was analyzed for CCL2 production in both, supernatants and celllysates.

[7] = test system: LFA-1; test: LPS-stimulated LFA-1 protein expression (ELISA, cell lysates) in RAW 264.7 cells; type: cell-based, mouse; details: NorBIRT 500 ng/ml 2 and 4 h, LPS 500 ng/ml 24 h
Method: Further, RAW 264.7 cells were pretreated with NorBIRT (500 ng/ml) for 2 and 4 h before being incubated with LPS (500 ng/ml). After 24 h of incubation, LFA-1 was measured in celllysates by ELISA.

[8] = test system: RAW 264.7 cells; test: Mouse macrophage cell migration in response to CCL2; type: cell-based; details: recombinant mouse CCL2 (2D-100 ng/ml)
Method: Mouse macrophages cell migration in response to CCL2 was assessed with recombinant mouse CCL2 (2D-100 ng/ml) in RAW 264.7 cells. Latrunculin was used as a positive control to inhibit cell migration.

[9] = test system: RAW 264.7 cells; test: WST-1 cytotoxicity/viability assay; type: cell-based, mouse; details: 50, 100, SOO, and 1000 ng/ml, 24 h
Method: RAW 264.7 cells were treated with NorBIRT for the indicated concentrations (50, 100, SOO, and 1000 ng/ml) for 24 h. Cytotoxicity was analyzed using an WST-1 assay. The WST-1 conversion assay was based on the mitochondrial function of intact cells.

[10] = test system: rats with sciatic nerve chronic constriction injury (CCI); test: Sciatic nerve chronic constriction injury (CCI) allodynia, von Frey test; type: in vivo, rat; details: for reversal of CCI-induced mechanical allodynia: 10 days after CCI
Excerpt: Glial (astrocytes, microglia, satellite & Schwann) cells are recognized as contributing to the development and maintenance of neuropathic pain [86]. Glia are well-known to serve a number of housekeeping functions for healthy neuronal communication. […] Glia have receptors for and are activated by invading pathogens, neuropeptides and neurotransmitters. Once activated, glia can contribute to persistent pathological pain by responding to and releasing factors that act on both neurons and surrounding glia. Classic immune signals include the pro-inflammatory cytokines, interleukin-1 (IL-1β) and tumor necrosis factor-alpha (TNF-α), and chemokines such as CCL2 [139, 142]. Chronic constriction injury (CCI) is a well-characterized animal model that involves both inflammation and trauma around one sciatic nerve. Loose sciatic nerve ligation of 4 sutures produces allodynia in hind paws of rodents. Allodynia in rodents is often measured by hind paw responses to low threshold mechanical stimuli (von Frey test). Clinically, allodynia is well-documented as a common problem for neuropathic pain patients, and the von Frey test is a highly validated assessment tool for allodynia. Several gene therapy vector approaches for neuropathic pain control are being pursued for directed delivery to the dorsal spinal cord & DRG (the pain compartments) & to specific cell types within those compartments, such as glial cells in the DRG (satellite & Schwann cells) or astrocytes and microglia in the dorsal horn of the spinal cord, with one recent clinical trial underway.
We sought to identify the best vector system, either of the viral-based adeno-associated virus (AAV) or the non-viral DNA-based vector (plasmid DNA; pDNA), to achieve therapeutic pain control when delivered to the spinal subarachnoid space (IT). […] While successful, the viral vectors were short-lived in their effects when one considers clinical neuropathic pain control. […] While continued progress toward designing improved viral vector systems may be worthy of future exploration, the optimal vector identified for long-duration pain control during the current grant period was determined to be free pDNA encoding the IL-10 gene (FIG. 2). Behavioral pain assessment is conducted as previously described. Briefly, rats are placed in a quite, dimly lit room and allowed to habituate to the testing environment for 4 consecutive days, 1 hr/day. Baseline (BL) responses are assessed with a series of graded calibrated filaments (0.4 g-15.0 g) applied to the plantar surface of the hindpaws for 6 sec, which elicits a reliable paw withdrawal response. The pDNA-based vector used in data described here and in ‘Preliminary Data’ contains inverted terminal repeat (ITRs) palindromic nucleotide sequences that are residual components from the original AAV vector and provide additional promoter activity, albeit, somewhat weak.. Therefore ITRs would only serve to augment the transcription driven by the expression cassette. The transcriptional cassette contains the cytomegalovirus enhancer/chicken b-actin promoter (CB-actin promoter), an intronic region, the rat IL-10 gene with a spontaneous point mutation (F129S) and the SV40 polyadenylation signal region.
The animal models used in the experiments of this example extend to the well characterized & widely used model of peripheral neuropathy—sciatic nerve chronic constriction injury which combines both direct trauma plus inflammation to the sciatic nerve. When the peripheral nerves become unhealthy, neuropathic pain often ensues. This model combines both inflammation from loosely tied chromic gut ligatures that leads to a localized inflammation followed by slight constriction. In this model, spinal cord glia are activated, PICs are produced and blocking the actions of glia & PICs prevents and reverses neuropathic pain.
This stimulus elicits a paw withdrawal response. Under normal conditions, rats respond to about 10 g of pressure. […]

[11] = test system: 111In-leukocytes in lumbosacral spinal canal of CCI rats; test: SPECT/CT imaging of 111In-labeled leukocyte accumulation in lumbosacral spinal canal; type: in vivo, rat; details: NorBIRT injected vs saline
Excerpt: Initially, we determined that peripheral leukocytes accumulate in spinal regions that are necessary for pain signaling. We used a small animal SPECT/CT imaging system (single-photon emission computerized tomography) which was very similar to PET imaging, but which had better resolution. […] Blocking spinal leukocyte accumulation may be a novel therapeutic target promising for future clinical applications.
We next investigated whether peripheral immune cells in addition to spinal glia could participate in ongoing pain changes. First, it was determined whether leukocytes could extravasate into the lumbosacral region during ongoing neuropathy. Peritoneal leukocytes from same-strain donor rats were collected and labeled with a gamma-emitting radio-isotope […] and injected i.v. into either CCI or sham treated rats. Biodistributions were examined using a small animal SPECT/.
We quantified radioactivity—in uCis—in very discrete spinal regions of interest related to incoming sciatic pain information. We determined discrete differences in the levels of uCi activity within specific Lumbar vertebra and from the underlying L4-L6 spinal canal, even the associated intervertebral disc regions. We analyzed the L4-L6 spinal canal

[12] = test system: rats with sciatic nerve chronic constriction injury (CCI); details: IT IL-10 protein 4 hr prior to IT pDNA-IL10; cited from earlier work
[13] = test system: innate immune cells (macrophage, dendritic cells); details: IT IL-10 protein 4 hr prior to IT pDNA-IL10; cited from earlier work
[14] = i.t. 10-fold higher dose of NorBIRT (Example 10)

## CN1C(=O)N(c2cc(Cl)cc(Cl)c2)C(=O)[C@@]1(C)Cc1ccc(Br)cc1 [BIRT-377, reference compound]
[1]
  antiproliferative and anti-migratory properties of leukocytes: exert antiproliferative and anti-migratory properties

## C[C@@]1(Cc2ccc(Br)cc2)C(=O)N(c2cc(Cl)cc(Cl)c2)C(=O)N1CCCCCN [NorBIRT]
[2]
  LPS-induced NO production: inhibits
[3]
  expression (protein levels) of TNF-α: attenuates
[4]
  IL-1β release / LPS-stimulated expression (supernatants): reduced; also recorded: attenuated; also recorded: inhibits
  intracellular IL-1β (cell lysates): substantially increased
[5]
  IL-10 protein levels / release: increases; also recorded: dose-dependently increased
[6]
  LPS-stimulated CCL2 production: does not inhibit
[7]
  LPS-stimulated LFA-1 protein expression: inhibits
[8]
  macrophage cell migration in response to CCL2: inhibits
[9]
  viability of RAW 264.7 cells: does not affect
[10]; 500 ng i.v. NorBIRT vs saline, 48 and 72 hrs later
  change in allodynia: significant change; also recorded: reverses
[10]; after i.t. NorBIRT (Example 11)
  allodynia fully returned: ≤ 10 days
[10]; higher dose i.t. NorBIRT on day 45
  reversal of 45-day enduring allodynia: substantially reversed
[10]; i.t. 5 ng NorBIRT vs saline (Example 10)
  reversal of allodynia: very modestly reversed
[10]; [14]
  return of allodynia: ≤ 9 days
  reversal of allodynia: substantial reversal
[10]; i.t. NorBIRT vs i.t. vehicle (Example 11)
  reversal of 10-day CCI-induced bilateral mechanical allodynia: reversed
[10]; i.t. NorBIRT, compared to sham controls
  time of peak effect after injection: four
[10]; i.t. higher dose 100 ng vs vehicle (Example 11)
  effect on allodynia: dramatic reversal
[10]; i.t. low dose 5 ng vs vehicle (Example 11)
  effect on allodynia: lacking effects
[10]; i.v. 5000 ng
  effect on allodynia: attenuated allodynia bilaterally
[10]; i.v. 100 000 ng
  effect on allodynia: attenuated allodynia bilaterally
[10]; i.v. low dose, 5 days after injection, vs saline
  dose-dependent reversal from allodynia: did not produce
[10]; i.v. low dose, second experiment
  reversal of CCI-induced mechanical allodynia: did not reverse
[10]; i.v. low dose, throughout 8 days after injection, vs Sham
  dose-dependent reversal from allodynia: does not produce
[10]; i.v., relatively high doses, first experiment
  reversal of CCI-induced mechanical allodynia: reverses
[11]
  leukocyte accumulation (uCi signal) in lumbosacral spinal canal: no signal
[1]
  antiproliferative and anti-migratory properties of leukocytes: exert antiproliferative and anti-migratory properties

## IL-1 receptor antagonist: blocks spinal cord actions of IL1; drug with short half-life
[10]; intrathecal IL-1 receptor antagonist
  time of return of allodynia: ≤ 24 h
[10]; intrathecal, after CCI
  effect on allodynia: completely abolishes

B1: IL-10 protein: IT IL-10 protein (without transgene) (protein, UniProt P22301 19-178, looked up)
Interleukin-10: SPGQGTQSENSCTHFPGNLPNMLRDLRDAFSRVKTFFQMKDQLDNLLLKESLLEDFKGYLGCQALSEMIQFYLEEVMPQAENQDPDIKAHVNSLGENLKTLRLRLRRCHRFLPCENKSKAVEQVKNAFNKLQEKGIYKAMSEFDIFINYIEAYMTMKIRN
[12]
  long duration pain relief after IT pDNA-IL-10: prevented
[13]
  cellular enrichment in surrounding CSF after IT pDNA-IL10: prevented
